Test results published in ChEMBL document CHEMBL1201862, “PubChem BioAssay data set” (2004).
Calls of active or inactive are those of the source.

Tests used:
[1] = target: T1, Mannose-6-phosphate isomerase (Homo sapiens, UniProt P34949); experiment: phosphomannose isomerase inhibition – biochemical, fluorescence intensity, confirmation (AID 1535)
T1 sequence (P34949 whole entry): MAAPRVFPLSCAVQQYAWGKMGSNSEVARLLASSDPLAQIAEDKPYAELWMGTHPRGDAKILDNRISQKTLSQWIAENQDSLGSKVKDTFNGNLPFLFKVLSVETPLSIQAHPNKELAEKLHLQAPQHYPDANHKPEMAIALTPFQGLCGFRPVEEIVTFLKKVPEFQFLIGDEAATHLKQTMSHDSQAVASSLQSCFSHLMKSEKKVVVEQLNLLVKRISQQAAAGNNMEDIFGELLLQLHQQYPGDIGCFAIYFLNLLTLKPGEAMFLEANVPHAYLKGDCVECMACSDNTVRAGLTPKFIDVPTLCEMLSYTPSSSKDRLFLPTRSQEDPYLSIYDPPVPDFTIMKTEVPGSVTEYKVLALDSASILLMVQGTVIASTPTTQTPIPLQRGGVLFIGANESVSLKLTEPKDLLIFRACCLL

[2] = target: Phosphomannomutase 2 (Homo sapiens, UniProt O15305); experiment: Counter screen SAR assay for PMM2 inhibitors via a fluorescence intensity assay. [Related pubchem assays (depositor defined):AID1545, AID1574]
[3] = target: Phosphoethanolamine/phosphocholine phosphatase (Homo sapiens, UniProt Q8TCT1); experiment: SAR assay for compounds that inhibit PHOSPHO1. [Related pubchem assays (depositor defined):AID1545, AID1565, AID1574]
[4] = target: Protein Rev (Human immunodeficiency virus type 1 group M subtype B (isolate HXB2)(HIV-1), UniProt P04618); experiment: blockers of HIV Rev/RRE RNA complex – biochemical, fluorescence polarization, HIV-1, dose response (AID 434976); parameters: species or system Human immunodeficiency virus 1
[5] = target: Female germline-specific tumor suppressor gld-1 (Caenorhabditis elegans, UniProt Q17339); experiment: blockers of GLD-1/TGE RNA complex formation – biochemical, fluorescence polarization, C. elegans, dose response (AID 2802);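 also: fluorescence polarization of labeled TGE RNA bound by purified gld-1 protein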
[6] = target: E3 ubiquitin-protein ligase XIAP (Homo sapiens, UniProt P98170); experiment: Counter Screen using XIAP-Bir3 for Chemical Antagonists of Bir1/2 domains of IAP-family anti-apoptotic proteins. [Related pubchem assays (depositor defined):AID1018, AID1449, AID1514, AID1638, AID1749, AID1750, AID488957, AID488963]
[7] = target: Induced myeloid leukemia cell differentiation protein Mcl-1 (Homo sapiens, UniProt Q07820); assay type: functional
[8] = target: Eukaryotic translation initiation factor 4E (Mus musculus, UniProt P63073); experiment: blockers of eIF4G binding by eIF4E – biochemical, TR-FRET, dose response (AID 855); assay type: functional;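 also: potency for disrupting eIF4E binding to eIF4GI seen as loss of FRET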
[9] = target: T2, Replicative DNA helicase DnaB (Mycobacterium tuberculosis, UniProt P9WMR3); experiment: DnaB intein splicing inhibitors, dose response, biochemical, cell-free fluorescence (AID 449749); assay type: functional
T2 sequence (P9WMR3 whole entry): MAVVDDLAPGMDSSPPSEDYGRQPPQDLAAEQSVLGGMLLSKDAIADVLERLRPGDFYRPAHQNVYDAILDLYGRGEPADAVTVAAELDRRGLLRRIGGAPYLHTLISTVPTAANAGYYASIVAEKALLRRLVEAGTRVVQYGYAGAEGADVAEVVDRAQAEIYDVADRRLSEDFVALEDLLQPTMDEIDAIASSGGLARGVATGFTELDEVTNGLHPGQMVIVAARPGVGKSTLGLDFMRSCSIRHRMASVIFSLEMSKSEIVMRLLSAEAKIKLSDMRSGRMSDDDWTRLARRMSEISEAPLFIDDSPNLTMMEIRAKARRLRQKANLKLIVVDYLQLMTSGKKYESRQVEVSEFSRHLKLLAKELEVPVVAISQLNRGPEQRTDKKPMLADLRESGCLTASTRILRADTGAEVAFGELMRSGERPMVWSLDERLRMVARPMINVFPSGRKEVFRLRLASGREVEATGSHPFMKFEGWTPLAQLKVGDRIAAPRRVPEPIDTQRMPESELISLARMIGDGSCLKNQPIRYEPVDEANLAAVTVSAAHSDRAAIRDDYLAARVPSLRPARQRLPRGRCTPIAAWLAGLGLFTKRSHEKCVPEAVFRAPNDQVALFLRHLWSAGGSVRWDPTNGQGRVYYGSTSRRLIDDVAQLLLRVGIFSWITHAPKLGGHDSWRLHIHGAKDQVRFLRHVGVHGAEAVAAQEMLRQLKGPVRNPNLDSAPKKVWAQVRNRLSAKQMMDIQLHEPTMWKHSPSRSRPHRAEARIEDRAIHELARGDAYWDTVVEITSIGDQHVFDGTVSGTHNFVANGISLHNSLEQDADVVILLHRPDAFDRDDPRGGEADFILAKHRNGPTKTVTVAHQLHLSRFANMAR

[10] = target: T3, Protein RecA (Mycobacterium tuberculosis, UniProt P9WHJ3); experiment: Fluorescence Cell-Free Homogeneous Dose Retest to Identify Inhibitors of RecA-Intein Splicing Activity. [Related pubchem assays (depositor defined):AID2097, AID2223, AID489010, AID492950]; assay type: functional
T3 sequence (P9WHJ3 whole entry): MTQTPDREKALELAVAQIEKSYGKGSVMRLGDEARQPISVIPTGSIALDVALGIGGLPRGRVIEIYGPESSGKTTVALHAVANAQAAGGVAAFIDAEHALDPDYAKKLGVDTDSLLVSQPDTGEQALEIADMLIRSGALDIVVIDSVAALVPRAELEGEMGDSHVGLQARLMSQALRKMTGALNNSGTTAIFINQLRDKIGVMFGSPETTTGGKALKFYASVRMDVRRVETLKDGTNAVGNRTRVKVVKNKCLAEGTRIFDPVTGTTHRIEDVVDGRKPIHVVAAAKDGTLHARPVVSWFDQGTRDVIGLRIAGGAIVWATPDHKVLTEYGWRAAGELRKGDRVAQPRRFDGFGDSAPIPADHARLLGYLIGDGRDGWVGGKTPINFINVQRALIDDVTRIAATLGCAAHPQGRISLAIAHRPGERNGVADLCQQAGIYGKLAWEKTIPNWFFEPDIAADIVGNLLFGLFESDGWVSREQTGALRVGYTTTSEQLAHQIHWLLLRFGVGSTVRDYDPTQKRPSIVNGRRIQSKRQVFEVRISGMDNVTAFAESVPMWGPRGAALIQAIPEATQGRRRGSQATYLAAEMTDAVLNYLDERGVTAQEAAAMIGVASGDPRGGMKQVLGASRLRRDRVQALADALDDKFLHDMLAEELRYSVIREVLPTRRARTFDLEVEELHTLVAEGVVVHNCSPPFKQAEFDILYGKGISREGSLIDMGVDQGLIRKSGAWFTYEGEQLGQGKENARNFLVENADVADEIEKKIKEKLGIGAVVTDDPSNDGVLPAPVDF

[11] = target: T4, Polyadenylate-binding protein 1 (Homo sapiens, UniProt P11940); experiment: MLLE binding blockers, Cy5 peptide tracer – biochemical, fluorescence polarization, Cy5-PAM2 peptide, secondary, miRNA deadenylation inhibitor project, dose response (AID 602260); assay type: functional; conditions: read-out: IC50_Mean
[12] = target: T4, Polyadenylate-binding protein 1; experiment: MLLE domain peptide-binding blockers, IC50 – biochemical, fluorescence polarization, FITC-PAM2 peptide, dose response (AID 602259); assay type: functional; conditions: read-out: IC50_Mean
[13] = target: Exodeoxyribonuclease V (Escherichia coli (strain K12), UniProt P04993+P07648+P08394); experiment: RecBCD inhibition via phage-restricted bacterial growth – absorbance, V66 E. coli, mutant T4 phage, counter-screen for AddAB inhibitor project, dose response (AID 492957); assay type: functional, cell-based, Escherichia coli str. K-12 substr. MG1655
[14] = Counterscreen for AddAB inhibitors: absorbance-based bacterial cell-based high throughput dose response assay for inhibitors of bacterial viability. [Related pubchem assays (depositor defined):AID435030, AID449728, AID449731, AID488942, AID488955, AID488956]; assay type: functional

T4 sequence (P11940 whole entry, the tested form may be a part): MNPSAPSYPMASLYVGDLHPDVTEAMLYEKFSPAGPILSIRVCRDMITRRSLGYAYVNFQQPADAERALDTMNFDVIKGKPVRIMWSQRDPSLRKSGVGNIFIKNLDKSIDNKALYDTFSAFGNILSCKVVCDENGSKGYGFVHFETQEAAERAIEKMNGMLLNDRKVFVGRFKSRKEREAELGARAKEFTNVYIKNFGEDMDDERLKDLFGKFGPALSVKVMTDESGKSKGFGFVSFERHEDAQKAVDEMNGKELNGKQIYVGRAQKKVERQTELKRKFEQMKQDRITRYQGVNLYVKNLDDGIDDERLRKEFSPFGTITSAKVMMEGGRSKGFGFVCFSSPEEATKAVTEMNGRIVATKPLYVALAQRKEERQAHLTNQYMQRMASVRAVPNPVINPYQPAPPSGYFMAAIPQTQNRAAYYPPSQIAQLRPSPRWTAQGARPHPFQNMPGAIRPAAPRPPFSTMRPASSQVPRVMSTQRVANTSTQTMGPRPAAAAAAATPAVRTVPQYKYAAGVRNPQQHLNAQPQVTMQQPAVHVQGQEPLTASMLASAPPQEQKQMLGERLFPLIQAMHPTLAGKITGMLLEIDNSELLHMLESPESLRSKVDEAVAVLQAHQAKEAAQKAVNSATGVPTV
Chain of Protein Rev (P04618 whole entry): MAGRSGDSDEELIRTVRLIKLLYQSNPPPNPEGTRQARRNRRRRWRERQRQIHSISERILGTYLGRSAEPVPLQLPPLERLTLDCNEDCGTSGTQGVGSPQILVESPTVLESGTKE
Chain of Exodeoxyribonuclease V (P04993 whole entry): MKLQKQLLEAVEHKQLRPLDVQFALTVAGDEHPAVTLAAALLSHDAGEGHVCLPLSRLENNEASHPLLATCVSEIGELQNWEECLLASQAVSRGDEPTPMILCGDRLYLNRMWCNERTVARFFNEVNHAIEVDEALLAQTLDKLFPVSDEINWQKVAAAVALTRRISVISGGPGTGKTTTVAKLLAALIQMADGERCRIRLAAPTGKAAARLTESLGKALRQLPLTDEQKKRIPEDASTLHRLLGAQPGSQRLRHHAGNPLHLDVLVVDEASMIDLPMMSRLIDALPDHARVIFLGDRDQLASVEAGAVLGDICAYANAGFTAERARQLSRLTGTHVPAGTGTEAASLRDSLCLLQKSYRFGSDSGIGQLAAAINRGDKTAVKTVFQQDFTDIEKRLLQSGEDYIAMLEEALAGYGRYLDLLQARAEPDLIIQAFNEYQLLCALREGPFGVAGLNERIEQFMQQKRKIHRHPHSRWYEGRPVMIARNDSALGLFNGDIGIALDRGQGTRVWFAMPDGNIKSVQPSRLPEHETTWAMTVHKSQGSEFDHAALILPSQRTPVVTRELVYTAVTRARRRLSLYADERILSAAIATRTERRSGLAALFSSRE
Chain of Exodeoxyribonuclease V (P07648 whole entry): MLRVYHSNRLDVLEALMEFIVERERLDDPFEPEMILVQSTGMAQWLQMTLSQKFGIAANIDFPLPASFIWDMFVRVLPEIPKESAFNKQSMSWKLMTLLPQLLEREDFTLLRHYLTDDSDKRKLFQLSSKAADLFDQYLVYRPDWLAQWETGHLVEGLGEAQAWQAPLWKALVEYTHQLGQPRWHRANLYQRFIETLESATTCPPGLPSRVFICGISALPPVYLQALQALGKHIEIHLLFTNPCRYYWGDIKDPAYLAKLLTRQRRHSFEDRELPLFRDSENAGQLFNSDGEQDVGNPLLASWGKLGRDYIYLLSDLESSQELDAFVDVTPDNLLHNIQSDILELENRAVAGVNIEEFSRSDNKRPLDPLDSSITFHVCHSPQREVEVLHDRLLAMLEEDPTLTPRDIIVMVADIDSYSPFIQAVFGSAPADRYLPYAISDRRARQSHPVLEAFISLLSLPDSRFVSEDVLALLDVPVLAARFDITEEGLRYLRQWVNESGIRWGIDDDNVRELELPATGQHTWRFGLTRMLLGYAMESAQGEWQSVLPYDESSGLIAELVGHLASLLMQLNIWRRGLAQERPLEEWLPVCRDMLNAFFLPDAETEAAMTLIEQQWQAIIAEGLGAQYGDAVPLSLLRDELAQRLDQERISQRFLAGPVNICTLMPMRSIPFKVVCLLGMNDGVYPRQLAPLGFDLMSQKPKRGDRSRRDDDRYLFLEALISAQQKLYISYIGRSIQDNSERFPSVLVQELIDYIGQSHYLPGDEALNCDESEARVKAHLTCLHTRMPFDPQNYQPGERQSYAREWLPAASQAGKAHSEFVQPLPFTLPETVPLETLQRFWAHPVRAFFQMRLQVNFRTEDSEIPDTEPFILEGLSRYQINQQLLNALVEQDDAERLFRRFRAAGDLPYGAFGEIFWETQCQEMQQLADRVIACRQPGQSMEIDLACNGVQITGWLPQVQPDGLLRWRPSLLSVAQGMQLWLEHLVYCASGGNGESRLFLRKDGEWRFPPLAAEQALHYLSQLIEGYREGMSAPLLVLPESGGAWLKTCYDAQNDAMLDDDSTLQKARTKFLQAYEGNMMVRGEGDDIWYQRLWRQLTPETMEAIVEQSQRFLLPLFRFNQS
Chain of Exodeoxyribonuclease V (P08394 whole entry): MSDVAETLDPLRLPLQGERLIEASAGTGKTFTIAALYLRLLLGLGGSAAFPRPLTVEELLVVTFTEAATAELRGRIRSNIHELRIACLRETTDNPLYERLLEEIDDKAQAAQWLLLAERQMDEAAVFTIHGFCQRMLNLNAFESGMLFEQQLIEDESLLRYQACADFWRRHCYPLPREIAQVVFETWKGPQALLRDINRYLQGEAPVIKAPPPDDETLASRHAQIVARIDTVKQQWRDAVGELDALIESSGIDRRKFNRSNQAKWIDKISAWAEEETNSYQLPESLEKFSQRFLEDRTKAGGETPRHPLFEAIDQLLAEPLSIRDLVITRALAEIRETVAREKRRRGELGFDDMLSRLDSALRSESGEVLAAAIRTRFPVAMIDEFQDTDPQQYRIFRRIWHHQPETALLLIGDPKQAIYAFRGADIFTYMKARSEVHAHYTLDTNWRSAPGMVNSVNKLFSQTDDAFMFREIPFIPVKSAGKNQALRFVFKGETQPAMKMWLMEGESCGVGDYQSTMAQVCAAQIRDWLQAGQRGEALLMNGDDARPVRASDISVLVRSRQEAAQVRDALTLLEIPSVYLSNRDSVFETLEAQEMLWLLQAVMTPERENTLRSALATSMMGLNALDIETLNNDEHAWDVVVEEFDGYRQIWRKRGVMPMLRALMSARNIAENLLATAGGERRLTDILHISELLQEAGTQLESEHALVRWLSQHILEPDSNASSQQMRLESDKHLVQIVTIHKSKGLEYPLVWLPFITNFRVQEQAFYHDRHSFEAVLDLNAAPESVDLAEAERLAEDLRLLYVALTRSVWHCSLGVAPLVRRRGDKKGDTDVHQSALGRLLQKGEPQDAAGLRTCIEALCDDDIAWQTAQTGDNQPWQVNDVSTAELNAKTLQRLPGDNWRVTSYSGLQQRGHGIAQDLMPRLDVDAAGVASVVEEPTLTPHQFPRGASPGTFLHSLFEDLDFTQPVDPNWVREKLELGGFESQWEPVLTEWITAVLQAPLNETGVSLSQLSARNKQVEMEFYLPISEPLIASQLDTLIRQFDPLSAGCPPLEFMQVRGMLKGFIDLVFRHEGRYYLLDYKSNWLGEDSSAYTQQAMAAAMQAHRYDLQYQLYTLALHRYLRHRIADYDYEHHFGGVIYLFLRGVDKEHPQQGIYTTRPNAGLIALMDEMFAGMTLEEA
Chain of Phosphomannomutase 2 (O15305 whole entry): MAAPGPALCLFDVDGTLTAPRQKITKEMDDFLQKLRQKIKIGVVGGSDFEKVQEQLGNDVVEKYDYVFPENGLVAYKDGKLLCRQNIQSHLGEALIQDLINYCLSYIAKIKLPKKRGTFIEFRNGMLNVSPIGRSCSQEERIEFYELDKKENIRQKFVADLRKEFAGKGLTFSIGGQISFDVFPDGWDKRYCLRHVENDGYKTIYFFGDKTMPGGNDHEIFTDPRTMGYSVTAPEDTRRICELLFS
Chain of Female germline-specific tumor suppressor gld-1 (Q17339 whole entry): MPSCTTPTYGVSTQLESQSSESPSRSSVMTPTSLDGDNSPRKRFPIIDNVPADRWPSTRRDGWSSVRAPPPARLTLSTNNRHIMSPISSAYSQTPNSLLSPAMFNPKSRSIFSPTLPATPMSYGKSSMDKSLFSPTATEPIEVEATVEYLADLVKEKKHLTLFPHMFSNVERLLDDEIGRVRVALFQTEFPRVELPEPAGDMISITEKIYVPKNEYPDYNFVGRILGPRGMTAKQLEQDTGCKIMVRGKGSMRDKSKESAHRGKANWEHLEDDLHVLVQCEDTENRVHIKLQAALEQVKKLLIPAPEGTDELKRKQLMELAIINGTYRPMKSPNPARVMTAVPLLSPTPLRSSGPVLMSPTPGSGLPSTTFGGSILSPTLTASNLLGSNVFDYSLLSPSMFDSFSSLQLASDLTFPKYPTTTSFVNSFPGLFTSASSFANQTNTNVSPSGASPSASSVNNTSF
Chain of Induced myeloid leukemia cell differentiation protein Mcl-1 (Q07820 whole entry): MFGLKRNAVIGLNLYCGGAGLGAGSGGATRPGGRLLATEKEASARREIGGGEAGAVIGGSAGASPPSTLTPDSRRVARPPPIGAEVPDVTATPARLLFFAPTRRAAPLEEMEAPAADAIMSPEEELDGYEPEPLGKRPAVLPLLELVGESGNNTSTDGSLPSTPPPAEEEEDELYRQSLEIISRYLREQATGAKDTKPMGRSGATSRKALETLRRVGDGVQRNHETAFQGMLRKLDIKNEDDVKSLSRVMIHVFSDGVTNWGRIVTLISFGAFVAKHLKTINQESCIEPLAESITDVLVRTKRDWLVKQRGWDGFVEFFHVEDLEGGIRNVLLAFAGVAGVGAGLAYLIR
Chain of Phosphoethanolamine/phosphocholine phosphatase (Q8TCT1 whole entry): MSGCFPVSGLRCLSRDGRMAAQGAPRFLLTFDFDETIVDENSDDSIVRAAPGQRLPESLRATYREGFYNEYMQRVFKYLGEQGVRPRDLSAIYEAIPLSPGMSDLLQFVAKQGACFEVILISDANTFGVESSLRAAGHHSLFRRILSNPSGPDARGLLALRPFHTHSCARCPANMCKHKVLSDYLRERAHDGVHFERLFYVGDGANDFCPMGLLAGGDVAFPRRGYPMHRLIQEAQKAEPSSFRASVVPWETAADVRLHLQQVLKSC

For `Cc1ccc(-n2sc3c4c(ccc3c2=O)C(=O)c2ccccc2C4=O)cc1`, the IC50 [1] was > 50 µM (inactive), the IC50 [2] was > 100 µM (inactive) and the IC50 [3] was 2.02 µM (inactive).
For `Nc1ccc(O)c2c1C(=O)c1ccccc1C2=O`, the IC50 [4] was > 75.4 µM (not active), the IC50 [5] was 3.05 µM (active) and the IC50 [6] was < 0.313 µM (active). The IC50 [7] was 4.35 µM (active), the IC50 [8] was 25.7 µM (active) and the AC50 [9] was 79.2 µM (active). The EC50 [10] was 39 µM (active), the IC50 [11] was > 66 µM (inactive) and the IC50 [12] was 24.3 µM (inactive).
For `CC(=O)N(/N=C/c1ccc([N+](=O)[O-])o1)c1nc2ccccc2c(=O)n1-c1ccccc1`, the IC50 [13] was > 119 µM (inactive) and the IC50 [14] was 45.9 µM (inactive).
